Assays:
[1] = tested on: Mycosphaerella graminicola (Septoria tritici); experiment: Mycosphaerella graminicola (Septoria tritici) / liquid culture (Septoria blotch); type: cell-based; conditions: Zymoseptoria tritici, growth inhibition photometrically 4-5 days after application, read-out: control of Mycosphaerella graminicola
How it was run: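 Conidia suspended in potato dextrose broth and added to test compound supplied in DMSO in 96-well plates. Incubated at 24 °C, and growth inhibition read photometrically 4-5 days after application.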

[2] = tested on: Fusarium culmorum; experiment: microbe, parasite or virus in culture; type: cell-based; conditions: read-out: control of Fusarium culmorum
[3] = tested on: Monographella nivalis (Microdochium nivale); experiment: Monographella nivalis (Microdochium nivale) / liquid culture (foot rot cereals); type: cell-based; conditions: growth inhibition photometrically 4-5 days after application, read-out: control of Monographella nivalis
How it was run: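 Fungal conidia mixed directly into potato dextrose broth and added to test compound delivered in DMSO. Incubated at 24° C; growth inhibition read photometrically 4-5 days after application.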

[4] = tested on: Glomerella lagenarium (Colletotrichum lagenarium); experiment: Glomerella lagenarium (Colletotrichum lagenarium) / liquid culture (anthracnose); type: cell-based; conditions: Colletotrichum orbiculare, growth inhibition photometrically 3-4 days after application, read-out: control of Glomerella lagenarium
How it was run: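 Cryo-stored conidia in potato dextrose broth were added to test compound in DMSO. Plates were incubated at 24° C, and growth inhibition was read photometrically 3-4 days after application.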

[5] = tested on: Botryotinia fuckeliana (Botrytis cinerea); experiment: Botryotinia fuckeliana (Botrytis cinerea) / liquid culture (gray mould); type: cell-based; conditions: growth inhibition photometrically 3-4 days after application, read-out: control of Botryotinia fuckeliana
How it was run: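 Conidia suspended in Vogels broth and added to compound dispensed from DMSO. Incubated at 24°C, with growth inhibition measured photometrically 3–4 days later.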

[6] = tested on: Mycosphaerella arachidis (Cercospora arachidicola); experiment: Mycosphaerella arachidis (Cercospora arachidicola) / liquid culture (early leaf spot); type: cell-based; conditions: growth inhibition photometrically 4-5 days after application, read-out: control of Mycosphaerella arachidis
Procedure: Example B10: Mycosphaerella arachidis (Cercospora arachidicola)/Liquid Culture (Early Leaf Spot) Conidia of the fungus from cryogenic storage are directly mixed into nutrient broth (PDB potato dextrose broth). After placing a (DMSO) solution of test compound into a microtiter plate (96-well format), the nutrient broth containing the fungal spores is added. The test plates are incubated at 24° C. and the inhibition of growth is determined photometrically 4-5 days after application.

[7] = tested on: Sclerotinia sclerotiorum; experiment: Sclerotinia sclerotiorum / liquid culture (cottony rot); type: cell-based; conditions: growth inhibition photometrically 3-4 days after application, read-out: control of Sclerotinia sclerotiorum
Procedure: Example B15: Sclerotinia sclerotiorum/Liquid Culture (Cottony Rot) Mycelia fragments of a newly grown liquid culture of the fungus are directly mixed into nutrient broth (PDB potato dextrose broth). After placing a (DMSO) solution of test compound into a microtiter plate (96-well format) the nutrient broth containing the fungal material is added. The test plates are incubated at 24° C. and the inhibition of growth is determined photometrically 3-4 days after application.

[8] = tested on: Pyrenophora teres; experiment: Pyrenophora teres / barley / leaf disc preventative (net blotch); type: in vivo; conditions: foliar, barley leaf segments, inoculated 2 days after application
Procedure: Example B14: Pyrenophora teres/Barley/Leaf Disc Preventative (Net Blotch) Barley leaf segments cv. Hasso are placed on agar in a multiwell plate (24-well format) and sprayed with the formulated test compound diluted in water. The leaf segments are inoculated with a spore suspension of the fungus 2 days after application. The inoculated leaf segments are incubated at 20° C. and 65% rh under a light regime of 12 h light/12 h darkness in a climate cabinet and the activity of a compound is assessed as disease control compared to untreated when an appropriate level of disease damage appears in untreated check leaf segments (5-7 days after application).

[9] = tested on: Blumeria graminis f. sp. tritici (Erysiphe graminis f. sp. tritici); experiment: Blumeria graminis f. sp. tritici / wheat / leaf disc preventative (powdery mildew on wheat); type: in vivo; conditions: foliar, wheat leaf segments, inoculated 1 day after application
Procedure: Example B4: Blumeria graminis f. Sp. Tritici (Erysiphe graminis f. Sp. Tritici)/Wheat/Leaf Disc Preventative (Powdery Mildew on Wheat) Wheat leaf segments cv. Kanzler are placed on agar in a multiwell plate (24-well format) and sprayed with the formulated test compound diluted in water. The leaf disks are inoculated by shaking powdery mildew infected plants above the test plates 1 day after application. The inoculated leaf disks are incubated at 20° C. and 60% rh under a light regime of 24 h darkness followed by 12 h light/12 h darkness in a climate chamber and the activity of a compound is assessed as percent disease control compared to untreated when an appropriate level of disease damage appears on untreated check leaf segments (6-8 days after application).

[10] = tested on: Phaeosphaeria nodorum (Septoria nodorum); experiment: Phaeosphaeria nodorum (Septoria nodorum) / wheat / leaf disc preventative (glume blotch); type: in vivo; conditions: Parastagonospora nodorum, foliar, wheat leaf segments, inoculated 2 days after application
Procedure: Example B8: Phaeosphaeria nodorum (Septoria nodorum)/Wheat/Leaf Disc Preventative (Glume Blotch) Wheat leaf segments cv. Kanzler are placed on agar in a multiwell plate (24-well format) and sprayed with the formulated test compound diluted in water. The leaf disks are inoculated with a spore suspension of the fungus 2 days after application. The inoculated test leaf disks are incubated at 20° C. and 75% rh under a light regime of 12 h light/12 h darkness in a climate cabinet and the activity of a compound is assessed as percent disease control compared to untreated when an appropriate level of disease damage appears in untreated check leaf disks (5-7 days after application).

[11] = tested on: Alternaria solani; experiment: Alternaria solani / tomato / leaf disc (early blight); type: in vivo; conditions: foliar, tomato leaf disks, sprayed 2 days before inoculation, compared to untreated control
Procedure: Example B1: Alternaria solani/Tomato/Leaf Disc (Early Blight) Tomato leaf disks cv. Baby are placed on agar in multiwell plates (24-well format) and sprayed with the formulated test compound diluted in water. The leaf disks are inoculated with a spore suspension of the fungus 2 days after application. The inoculated leaf disks are incubated at 23° C./21° C.

Cn1ncc(C(C)(CNC(=O)c2cc(-c3ccc(F)cc3F)on2)c2cccc(C#N)n2)c1Cl (stereo not drawn) [Compound P-119, N-[2-(5-chloro-1-methyl-pyrazol-4-yl)-2-(6-cyano-2-pyridyl)propyl]-5-(2,4-difluorophenyl) isoxazole-3-carboxamide]
≥ 80%: inhibition of growth at 20 ppm [1] | inhibition of growth at 20 ppm [2] | inhibition of growth at 20 ppm [3] | inhibition of growth at 20 ppm [4] | inhibition of growth at 20 ppm [5] | inhibition of growth at 20 ppm [6] | inhibition of growth at 20 ppm [7]

Cn1cc(C(C)(CNC(=O)c2noc(-c3ccc(F)cc3F)n2)c2cccc(Cl)n2)cn1 (stereo not drawn) [Compound P-83, N-[2-(6-chloro-2-pyridyl)-2-(1-methylpyrazol-4-yl)propyl]-5-(2,4-difluorophenyl)-1,2,4-oxadiazole-3-carboxamide]
≥ 80%: pest or weed control at 200 ppm [8] | inhibition of growth at 20 ppm [1] | pest or weed control at 200 ppm [9] | pest or weed control at 200 ppm [10] | inhibition of growth at 20 ppm [2] | inhibition of growth at 20 ppm [3] | inhibition of growth at 20 ppm [4] | inhibition of growth at 20 ppm [5] | inhibition of growth at 20 ppm [6] | pest or weed control at 200 ppm [11]

Cn1cc(C(C)(CNC(=O)c2nnc(-c3ccc(F)cc3F)o2)c2cccc(Cl)n2)cn1 (stereo not drawn) [Compound P-101, N-[2-(6-chloro-2-pyridyl)-2-(1-methylpyrazol-4-yl)propyl]-5-(2,4-difluorophenyl)-1,3,4-oxadiazole-2-carboxamide]
≥ 80%: pest or weed control at 200 ppm [8] | inhibition of growth at 20 ppm [1] | pest or weed control at 200 ppm [9] | pest or weed control at 200 ppm [10] | inhibition of growth at 20 ppm [3] | inhibition of growth at 20 ppm [4] | inhibition of growth at 20 ppm [5] | inhibition of growth at 20 ppm [6] | inhibition of growth at 20 ppm [7] | pest or weed control at 200 ppm [11]

Cn1ncc(C(C)(CNC(=O)c2nnc(-c3ccc(F)cc3F)s2)c2cccc(C#N)n2)c1Cl (stereo not drawn) [Compound P-118, N-[2-(5-chloro-1-methyl-pyrazol-4-yl)-2-(6-cyano-2-pyridyl)propyl]-5-(2,4-difluorophenyl)-1,3,4-thiadiazole-2-carboxamide]
≥ 80%: inhibition of growth at 20 ppm [1] | inhibition of growth at 20 ppm [2] | inhibition of growth at 20 ppm [3] | inhibition of growth at 20 ppm [4] | inhibition of growth at 20 ppm [5] | inhibition of growth at 20 ppm [6] | inhibition of growth at 20 ppm [7]

Cn1cc(C(C)(CNC(=O)c2cc(-c3ccc(F)cc3F)on2)c2ccccn2)cn1 (stereo not drawn) [Compound P-11, 5-(2,4-difluorophenyl)-N-[2-(1-methylpyrazol-4-yl)-2-(2-pyridyl)propyl] isoxazole-3-carboxamide]
≥ 80%: pest or weed control at 200 ppm [8] | inhibition of growth at 20 ppm [1] | pest or weed control at 200 ppm [9] | pest or weed control at 200 ppm [10] | inhibition of growth at 20 ppm [3] | inhibition of growth at 20 ppm [4] | inhibition of growth at 20 ppm [5] | pest or weed control at 200 ppm [11]

Reference: patent US20240343717A1, “MICROBIOCIDAL PYRAZOLE DERIVATIVES” (SYNGENTA CROP PROTECTION AG, priority 2021, published 2024)
